Assay results published in patent publication US5827866A, “Peptidyl heterocycles useful in the treatment of thrombin related disorders” (Ortho Pharmaceutical Corporation, priority 1995, dated 1998).
Read-outs that look alike come from different tables or passages of the source.

How the values were obtained:
[1] = rat, in vivo, iv
Experimental: (§1) An ex vivo assay was conducted to determine the duration of action of the compounds of Formula I. For this i.v. assay male rats (Long Evans, 350-500 g) were implanted with a teflon cannulae via the femoral artery while under anesthesia (pentobarbital i.p., 35 mg/kg). […] The animals were allowed to recover for at least 24 h after the surgical procedure.
(§2) The test compound was dispersed in water and delivered to the animal (0.25 mL) via the femoral vein. […] A plasma sample was obtained by centrifuging the blood at 10,000 rpm for 5 min. This sample is analyzed for thrombin inhibition using the chromogenic assay, described below.
(§3) Datum was collected over a 30 min period and the initial rate of substrate hydrolysis (V0 (mOD/min)) was calculated with an analysis program (Softmax, Molecular Devices).
(§4) The time to half plasma elimination (t 1/2) was calculated from the slope of Vo vs. time, using the following equation:

[2] = Ex vivo i.v. assay for duration of action (time to half plasma elimination); details: rat, from slope of Vo vs. time of plasma thrombin inhibition
Experimental: as §1, §2, §3, §4

[3] = Ex vivo bioavailability assay (i.v. and p.o.); design: species or system male rats; details: rat, p.o. vs i.v.; drug in plasma extrapolated from thrombin inhibition
Experimental: Bioavailability was determined by an ex vivo assay which incorporated hydrolysis rates from drug administered both i.v. and p.o. In this assay male rats were prepared as described above with a teflon tube implanted in their femoral artery.
A standard curve was generated by adding of drug or vehicle (100 μL) to whole blood (900 μL) followed by incubating (5 min) and centrifuging to obtain plasma. The percentage of thrombin inhibition was calculated by comparing the V0 of the vehicle to that of the drug treated samples. Datum from several runs were normalized with a statistical package (SAS) to generate a standard curve.
The percentage of thrombin inhibition in the treated animals was calculated by comparing the V0 prior to treatment with the V0 obtained from samples collected after treatment. The percent inhibition was applied to the standard curve (generated above) using the statistical package (SAS) and the quantity of drug in the sample was extrapolated.
Bioavailability (Bioavail.) was calculated from the plots of the extrapolated drug in sample vs. time for both i.v. and p.o. administration using the following equation:
%Bioavail. =([…])×(area
under p.o. curve/area under curve i.v.)

Structure (SMILES)	t1/2 [1] [min]	Bloavail, [3] [%]	t1/2 [2] [min]
CNC(Cc1ccccc1)C(=O)N1CCCC1C(=O)NC(CCCNC(=N)N)C(=O)c1nc2ccccc2[nH]1 (centres unmarked) [Compound 21]	5	–	–
CN[C@H](Cc1ccccc1)C(=O)N1CCC[C@H]1C(=O)N[C@@H](CCCNC(=N)N)C(=O)c1nc2ccc(F)cc2s1 [Compound 17]	8	–	–
CN[C@@H](C(=O)N1CCC[C@H]1C(=O)N[C@@H](CCCNC(=N)N)C(=O)c1nc2ccccc2s1)C1CCCCC1 [Compound 37, N-METHYL-D-CYCLOHEXYLGLYCYL-N-[4-[(AMINOIMINOMETHYL)AMINO]-1S-[(BENXOTHIAZOL-2-YL)CARBONYL]BUTYL]-L-PROLINAMIDE]	42	–	–
CN[C@H](Cc1c(F)c(F)c(F)c(F)c1F)C(=O)N1CCC[C@H]1C(=O)N[C@@H](CCCNC(=N)N)C(=O)c1nc2ccccc2s1 [Compound 30]	6	–	–
CNC(C(=O)N1CCC[C@H]1C(=O)N[C@@H](CCCNC(=N)N)C(=O)c1nc2ccccc2s1)c1ccccc1 (some centres unmarked) [Compound 34]	–	–	26
CN[C@H](Cc1ccccc1)C(=O)N1CCC[C@H]1C(=O)N[C@@H](CCCNC(=N)N)C(=O)c1nc2c(s1)CCCC2 [Compound 51]	17	–	–
CN[C@H](Cc1ccccc1)C(=O)N1CCC[C@H]1C(=O)N[C@@H](CCCNC(=N)N)C(=O)c1nc2ccc(O)cc2s1 [Compound 25]	–	–	14
CN[C@H](CC1CCCCC1)C(=O)N1CCC[C@H]1C(=O)N[C@@H](CCCNC(=N)N)C(=O)c1nc2ccccc2s1 [Compound 29, N-METHYL-D-CYCLOHEXYLALANYL-N-[4-[(AMINOIMINOMETHYL)AMINO]-1S-[(BENXOTHIAZOL-2-YL)CARBONYL]BUTYL]-L-PROLINAMIDE]	14	–	–
CN[C@H](Cc1ccccc1)C(=O)N1CCC[C@H]1C(=O)N[C@@H](CCCNC(=N)N)C(=O)c1nc2ccc3ccccc3c2s1 [Compound 52]	8	–	–
CN[C@H](Cc1ccc(F)cc1)C(=O)N1CCC[C@H]1C(=O)N[C@@H](CCCNC(=N)N)C(=O)c1nc2ccccc2s1 [Compound 32, N-METHYL-D-(4-FLUOROPHENYL)ALANYL-N-[4-[(AMINOIMINOMETHYL)AMINO)-1S-[(BENXOTHIAZOL-2-YL)CARBONYL]BUTYL]-L-PROLINAMIDE]	19	–	–
CC(=O)N[C@H](Cc1ccccc1)C(=O)N1CCC[C@H]1C(=O)N[C@@H](CCCNC(=N)N)C(=O)c1nc2ccccc2s1.O=C(O)C(F)(F)F [Compound 35]	11	–	–
CNC(C(=O)N1CCCC1C(=O)NC(CCCNC(=N)N)C(=O)c1nc2ccccc2s1)c1ccccc1 [Compound 33, N-METHYL-D-PHENYLGLYCYL-N-[4-[(AMINOIMINOMETHYL)AMINO]-1S-[(BENXOTHIAZOL-2- YL)CARBONYL]BUTYL]-L-PROLINAMIDE]	18	–	–

Further lines, with some results ahead:

t1/2 [1] [min]	Bloavail, [3] [%]	Structure (SMILES)	t1/2 [2] [min]
16	–	CNC(Cc1ccccc1)C(=O)N1CCCC1C(=O)NC(CCCNC(=N)N)C(=O)c1nccs1 (centres unmarked) [Compound 4]	–
25	–	CN[C@H](Cc1ccccc1)C(=O)N1CCC[C@H]1C(=O)N[C@@H](CCCNC(=N)N)C(=O)c1nc2ccc(C(=O)O)cc2s1 [Compound 13]	–
15	–	CN[C@H](Cc1ccccc1)C(=O)N1CCC[C@H]1C(=O)N[C@@H](CCCNC(=N)N)C(=O)c1nc(C(=O)O)cs1 [Compound 54]	–
19	1.2	CN[C@H](Cc1ccccc1)C(=O)N1CCC[C@H]1C(=O)N[C@@H](CCCNC(=N)N)C(=O)c1nc2ccccc2s1 [Compound 1, N-METHYL-D-PHENYLALANYL-N-[4-[(AMINOIMINOMETHYL)AMINO]-1S-[(BENXOTHIAZOL-2- YL)CARBONYL]BUTYL]-L-PROLINAMIDE]	–
14	–	CCOC(=O)c1csc(C(=O)[C@H](CCCNC(=N)N)NC(=O)[C@@H]2CCCN2C(=O)[C@@H](Cc2ccccc2)NC)n1 [Compound 19]	–
43	–	CN[C@H](Cc1ccccc1)C(=O)N1CCC[C@H]1C(=O)N[C@@H](CCCNC(=N)N)C(=O)c1nc2ccc(C(=O)OC)cc2s1 [Compound 12]	–
16	–	CN[C@H](Cc1ccccc1)C(=O)N1CCC[C@H]1C(=O)N[C@@H](CCCNC(=N)N)C(=O)c1nc2ccc(CO)cc2s1 [Compound 15]	–
